Results: patent US10821195B2, “Compositions for therapeutics, targeted PET imaging and methods of their use” (Memorial Sloan Kettering Cancer Center, priority 2015, dated 2020)
Several values for one entry are separate records, joined by “and”; a condition that tells them apart may be missing. Identical values can stand only once.

Tests used:
[1] = Biodistribution and clearance of ^89Zr-HOPO and ^89Zr-DFO in healthy mice; format: in vivo, healthy athymic nude mice; design: biodistribution Spleen / biodistribution Stomach / biodistribution Large Intestine / biodistribution Small Intestine / biodistribution Kidney / biodistribution Bladder / biodistribution Muscle / biodistribution Bone / biodistribution Tail / biodistribution Blood / biodistribution Heart / biodistribution Lung / biodistribution Gall Bladder / biodistribution Liver: unit not given here
Description: Significant uptake of ^89Zr-HOPO occurs in the gall bladder and intestines as well as the kidney. […] As ^89Zr-DFO is cleared exclusively through the kidneys and not through the hepatobiliary system, it is excreted from the body faster than ^89Zr-HOPO, as evidenced by the blood clearance curve (FIG. 10). While not wishing to be bound to theory, upon conjugation to an antibody, the pharmacokinetics of a ^89Zr-HOPO complex comprising ^89Zr-HOPO and an antibody can be superseded by those of the biomacromolecule, meaning that a difference in clearance pathways between ^89Zr-HOPO and ^89Zr-DFO should not be a concern. However, over the short circulation time of the Zr-ligand complexes, neither DFO nor HOPO show any signs of instability or bone accumulation.

[2] = EDTA transchelation challenge of ^89Zr complexes; format: physicochemical; settings: 50-fold excess of EDTA, 37° C., various pHs, 7 days
Description: (§1) In contrast, ^89Zr-HOPO is shown to be approximately impervious to the EDTA. […] This represents a significant improvement in the stability of the Zr-ligand complex at lower pH. […] Initially activity is seen in the bladder, gall bladder, and intestines.

[3] = Partition coefficients of ^89Zr complexes at pH 7.4; format: physicochemical
Description: Without having to be bound to any theory, the difference in clearance pathways between the two complexes is the difference in their partitions coefficients.

[4] = FIG. 2
Description: Table printed on a drawing sheet, FIG. 2
as §1
First reader's note: Cell hatching encodes the percent-intact class given in the legend; the values show stability of the radiometal-chelator complexes against EDTA transchelation.

[5] = Stability of ^89Zr complexes in human serum at 37° C. for 7 d (ITLC, SEC); settings: bare ligand complexes, one week
Description: Seven day old samples of the Zr-ligand complexes were run down a size exclusion column to differentiate protein and ligand.
Serum stability and immunoreactivity of ^89Zr-complexes were evaluated. To determine the stability in serum, ^89Zr-complexes were incubated in human serum at 37° C. for 7 d. The percentage of intact species was monitored by ITLC (Table 9).
^89Zr-ligand and ^89Zr-ligand-antibody complexes were prepared according to the radiolabeling protocol as described above. For each ^89Zr complex, samples were made consisting of 900 μL human serum and 100 μL of the ^89Zr species and were placed in a heat block at 37° C. with agitation. Samples were monitored using radio-TLC before being added to the serum and then after 1 week of incubation. The stability of the complexes was measured as the percentage of ^89Zr that was retained at the origin of the ITLC strip and therefore still intact.

## O=C1NCCCN2CCCCN3CCCNC(=O)c4cccc(=O)n4[O][89Zr]([O]n4c1cccc4=O)([O]n1c(cccc1=O)C2=O)[O]n1c(cccc1=O)C3=O [^89Zr-HOPO]
[1]; 10 min
  biodistribution Bladder: 2.04 ± 1.06
  biodistribution Blood: 3.24 ± 0.66
  biodistribution Bone: 1.04 ± 0.44
  biodistribution Gall Bladder: 6.61 ± 2.87
  biodistribution Heart: 1.57 ± 0.22
  biodistribution Kidney: 9.46 ± 2.71
  biodistribution Large Intestine: 0.26 ± 0.15
  biodistribution Liver: 3.29 ± 0.75
  biodistribution Lung: 1.07 ± 0.17
  biodistribution Muscle: 0.36 ± 0.06
  biodistribution Small Intestine: 5.99 ± 1.18
  biodistribution Spleen: 0.31 ± 0.04
  biodistribution Stomach: 1.22 ± 0.39
  biodistribution Tail: 4.25 ± 1.46
[1]; 1 h
  Blood/Bone ratio: 0.6 ± 0.4
  Muscle/Bone ratio: 0.34 ± 0.15
  biodistribution Bladder: 0.73 ± 0.36
  biodistribution Blood: 0.17 ± 0.10
  biodistribution Bone: 0.29 ± 0.09
  biodistribution Gall Bladder: 6.94 ± 3.38
  biodistribution Heart: 0.12 ± 0.06
  biodistribution Kidney: 1.05 ± 0.51
  biodistribution Large Intestine: 0.09 ± 0.06
  biodistribution Liver: 0.22 ± 0.09
  biodistribution Lung: 0.17 ± 0.09
  biodistribution Muscle: 0.10 ± 0.03
  biodistribution Small Intestine: 1.11 ± 0.35
  biodistribution Spleen: 0.09 ± 0.03
  biodistribution Stomach: 0.30 ± 0.15
  biodistribution Tail: 0.81 ± 0.34
[1]; 4 h
  Blood/Bone ratio: 0.2 ± 0.2
  Muscle/Bone ratio: 0.4 ± 0.3
  biodistribution Bladder: 0.58 ± 0.27
  biodistribution Blood: 0.05 ± 0.04
  biodistribution Bone: 0.23 ± 0.12
  biodistribution Gall Bladder: 1.00 ± 0.41
  biodistribution Heart: 0.06 ± 0.01
  biodistribution Kidney: 0.40 ± 0.14
  biodistribution Large Intestine: 7.17 ± 2.15
  biodistribution Liver: 0.13 ± 0.01
  biodistribution Lung: 0.08 ± 0.01
  biodistribution Muscle: 0.09 ± 0.06
  biodistribution Small Intestine: 0.12 ± 0.13
  biodistribution Spleen: 0.06 ± 0.01
  biodistribution Stomach: 0.50 ± 0.74
  biodistribution Tail: 0.29 ± 0.18
[1]; 12 h
  biodistribution Bladder: 0.54 ± 0.26
  biodistribution Blood: 0.02 ± 0.00
  biodistribution Bone: 0.25 ± 0.07
  biodistribution Gall Bladder: 2.45 ± 1.02
  biodistribution Heart: 0.06 ± 0.01
  biodistribution Kidney: 0.53 ± 0.23
  biodistribution Large Intestine: 0.10 ± 0.03
  biodistribution Liver: 0.09 ± 0.02
  biodistribution Lung: 0.06 ± 0.01
  biodistribution Muscle: 0.06 ± 0.01
  biodistribution Small Intestine: 0.02 ± 0.01
  biodistribution Spleen: 0.05 ± 0.01
  biodistribution Stomach: 0.01 ± 0.00
  biodistribution Tail: 0.11 ± 0.04
[1]; 1 d
  Blood/Bone ratio: 0.12 ± 0.02
  Muscle/Bone ratio: 0.35 ± 0.09
[1]; 24 h
  biodistribution Bladder: 0.28 ± 0.14
  biodistribution Blood: 0.02 ± 0.00
  biodistribution Bone: 0.17 ± 0.03
  biodistribution Gall Bladder: 1.15 ± 0.59
  biodistribution Heart: 0.07 ± 0.01
  biodistribution Kidney: 0.51 ± 0.29
  biodistribution Large Intestine: 0.03 ± 0.02
  biodistribution Liver: 0.06 ± 0.03
  biodistribution Lung: 0.06 ± 0.05
  biodistribution Muscle: 0.06 ± 0.01
  biodistribution Small Intestine: 0.02 ± 0.00
  biodistribution Spleen: 0.06 ± 0.01
  biodistribution Stomach: 0.02 ± 0.00
  biodistribution Tail: 0.05 ± 0.01
[1]; […]
  Blood/Bone ratio: 3.1 ± 1.5
  Muscle/Bone ratio: 0.35 ± 0.16
[1]; healthy mice
  clearance route: cleared through both renal and hepatobiliary excretion
[2]
  stability to transchelation by EDTA: remains intact for the full 7 days
[3]
  partition coefficient (lipophilicity): more lipophilic than ^89Zr-DFO
[4]
  % INTACT STARTING SPECIES BY INCUBATION TIME | 1 h: 99.8±0.4% and 99.3±1.3% and 99.0±1.8%
  % INTACT STARTING SPECIES BY INCUBATION TIME | 7 d: 99.6±0.7% and 99.2±1.5%
  % INTACT STARTING SPECIES BY INCUBATION TIME | INITIAL: 99.7±0.6% and 99.5±0.9%
[5]
  stability in human serum (ITLC and SEC): stable in serum over 7 days
